US20260258025A1, “INHIBITORS OF TDP-43 AND TAU AGGREGATION” (Aquinnah Pharmaceuticals, inc., priority 2023, published 2026)
“Also recorded” adds a separate entry of the source.

Tested on: TDP-43 nuclear localization
Test: TDP-43 localization analysis by immunofluorescence in MG-132 challenged iP11NA human motor neurons
Type: cell-based
Protocol: Cell culture and differentiation of iPS Cells into motor neurons. Pluripotent stem cells were grown with mTeSR Plus medium on tissue culture dishes coated with Matrigel, and maintained in 5% CO2 incubators at 37° C. Stem cells were passaged as small aggregates of cells after 1 mM EDTA treatment. […] was added to the cultures for 16-24 h after dissociation to prevent cell death. The iP11NA iPS cell line was acquired from ALSTEM. This cell line was generated from pre-made footprint-free human iPS cells with DOX inducible Ngn2 that has been stably integrated into the human AAVS1 “Safe Harbor” site, and provides a convenient means to differentiate human iPS cells into neurons rapidly and efficiently. Motor neuron differentiation was achieved using a modified 5-day strategy.
This approach relies on neural induction through small molecule inhibition of SMAD signaling, accelerated neural differentiation through forced Ngn2 expression, and motor neuron patterning through the activation of retinoic acid and Sonic Hedgehog signaling pathways. In brief, pluripotent stem cells were dissociated to single cells using accutase and plated at a density of 80,000 cells per cm^2 on Matrigel-coated culture plates with mTeSR Plus medium supplemented with ROCK inhibitor (10 μM Y-27632, ATCC). When cells reached 50% confluency, medium was changed to differentiation medium BrainPhys medium supplemented with N2-A, SM1, […]. This time point was defined as day 0 (d0) of motor neuron differentiation. Treatment with small molecules was carried out as follows: 2 μg/mL Doxycyline, 10 μM SB431542, 100 nM LDN-193189, […] and 1 μM Smoothend agonist and 10 uM Edu. […]
A dose-responsive effect was further tested for Compound 183 using quantitative imaging analysis on the CellInsight™ CX7 High Content Analysis Platform. By comparing the intensity of TDP-43 staining in the nucleus and cytoplasm of human motor neurons, we determined Compound 183 could maintain nuclear TDP-43 from 370 nM-10 μM in the proteasome challenged motor neurons (see FIG. 2).

In the case of `Cc1cc(-c2ccc(C3CCN(C(C)C)CC3)cc2)sc1C(=O)N1CC[C@H](N)C1` [Compound 183, (S)-(3-aminopyrrolidin-1-yl)(5-(4-(1-isopropylpiperidin-4-yl)phenyl)-3-methylthiophen-2-yl)methanone], the “nuclear TDP-43 staining (immunofluorescence)” value (500 nM Compound 183, pretreated 1 hour and during 1 μM MG-132 for 20 hours, human motor neurons) was “preventing TDP-43 nuclear clearance; also recorded: TDP-43 staining in the nucleus was observed that was much more similar to that of unchallenged neurons” and the “maintenance of nuclear TDP-43, dose response (nuclear vs cytoplasmic TDP-43 staining intensity)” value (MG-132 1 μM challenged human motor neurons, CX7 quantitative imaging, effective concentration range) was “maintaining nuclear TDP-43 in a dose-dependent manner”.
